Experimental data taken from ChEMBL document CHEMBL1128815, “Uracil-based angiotensin II receptor antagonists” (Bioorg Med Chem Lett, 1995).

How the values were obtained:
[1] = target: T1, Type-1 angiotensin II receptor B (Rattus norvegicus, UniProt P29089); test: Tested for binding affinity against angiotensin II receptor in rat adrenal cortex; assay type: tissue-based
T1 sequence (P29089 whole entry): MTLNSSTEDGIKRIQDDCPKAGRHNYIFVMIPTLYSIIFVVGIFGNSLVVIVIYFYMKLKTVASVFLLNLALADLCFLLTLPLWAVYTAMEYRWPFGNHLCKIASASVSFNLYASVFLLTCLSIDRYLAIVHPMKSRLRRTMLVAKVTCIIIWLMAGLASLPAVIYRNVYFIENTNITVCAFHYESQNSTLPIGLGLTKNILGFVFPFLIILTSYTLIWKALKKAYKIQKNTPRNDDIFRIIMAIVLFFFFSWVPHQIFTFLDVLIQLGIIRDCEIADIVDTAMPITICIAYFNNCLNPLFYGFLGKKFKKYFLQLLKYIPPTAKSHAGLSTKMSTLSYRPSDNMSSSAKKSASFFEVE

[2] = target: T2, Type-1 angiotensin II receptor (Bos taurus, UniProt P25104); test: Tested for binding affinity against angiotensin II receptor in bovine adrenal cortex; assay type: tissue-based
T2 sequence (P25104 whole entry): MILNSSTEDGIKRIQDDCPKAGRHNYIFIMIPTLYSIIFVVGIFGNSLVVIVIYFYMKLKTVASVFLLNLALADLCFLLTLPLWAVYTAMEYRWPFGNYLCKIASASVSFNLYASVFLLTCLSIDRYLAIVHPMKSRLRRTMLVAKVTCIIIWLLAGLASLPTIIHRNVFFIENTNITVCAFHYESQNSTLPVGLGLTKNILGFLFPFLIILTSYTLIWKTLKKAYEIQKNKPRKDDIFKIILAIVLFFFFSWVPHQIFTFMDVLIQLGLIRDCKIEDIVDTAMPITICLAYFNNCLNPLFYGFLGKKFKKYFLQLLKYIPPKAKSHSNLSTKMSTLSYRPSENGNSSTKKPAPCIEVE

| Structure (SMILES) | IC50 [1] [nM] | IC50 [2] [nM] |
| --- | --- | --- |
| CCCc1cc(=O)[nH]c(=O)n1Cc1ccc(-c2ccccc2-c2nn[nH]n2)cc1 | 4.3 | 100 |
| CCCc1cc(=O)n(Cc2ccccc2)c(=O)n1Cc1ccc(-c2ccccc2-c2nn[nH]n2)cc1 |  | 25 |
| CCCCc1cc(=O)n(Cc2ccccc2C(=O)OC)c(=O)n1Cc1ccc(-c2ccccc2-c2nnn[nH]2)cc1 | 2.4 | 27 |
| CCCc1cc(=O)n(C)c(=O)n1Cc1ccc(-c2ccccc2-c2nn[nH]n2)cc1 | 17 | 55 |
| CCCc1cc(=O)n(CCNC(=O)NC2CCCCC2)c(=O)n1Cc1ccc(-c2ccccc2-c2nnn[nH]2)cc1 | 1.4 | 23 |
| CCCc1c(C)c(=O)n(C)c(=O)n1Cc1ccc(-c2ccccc2-c2nnn[nH]2)cc1 |  | 6600 |
| CCCCn1c(=O)cc(CCC)n(Cc2ccc(-c3ccccc3-c3nn[nH]n3)cc2)c1=O |  | 16 |
| C=CCn1c(=O)cc(CCC)n(Cc2ccc(-c3ccccc3-c3nnn[nH]3)cc2)c1=O | 3.3 | 34 |
| CCCCc1cc(=O)n(C)c(=O)n1Cc1ccc(-c2ccccc2-c2nn[nH]n2)cc1 | 4.5 | 44 |
| CCCc1cc2ncnn2c(=O)n1Cc1ccc(-c2ccccc2-c2nnn[nH]2)cc1 | 6.2 | 62 |
| CCCc1cc(=O)n(CC(=O)N(C)C)c(=O)n1Cc1ccc(-c2ccccc2-c2nn[nH]n2)cc1 | 0.65 | 9.3 |
| CCc1cc(=O)n(C)c(=O)n1Cc1ccc(-c2ccccc2-c2nnn[nH]2)cc1 |  | 1000 |
| CCCCc1nc(Cl)c(CO)n1Cc1ccc(-c2ccccc2-c2nn[nH]n2)cc1 [LOSARTAN] |  | 160 |
| CCCc1cc(=O)n(Cc2ccccc2C(=O)OC)c(=O)n1Cc1ccc(-c2ccccc2-c2nnn[nH]2)cc1 | 2.3 | 20 |
| CCCCc1cc(=O)n2nc(-c3ccccc3)nc2n1Cc1ccc(-c2ccccc2-c2nn[nH]n2)cc1 | 83 | 520 |
| CCCc1cc(=O)n(CCNC(C)=O)c(=O)n1Cc1ccc(-c2ccccc2-c2nnn[nH]2)cc1 | 3.4 | 40 |
| Cn1c(=O)cc(C2CC2)n(Cc2ccc(-c3ccccc3-c3nn[nH]n3)cc2)c1=O |  | 2400 |
